Experiments:
FIMMI = assay: Example VI in-water applied ternary mixtures, greenhouse, transplanted paddy rice weeds; format: in vivo, Fimbristylis miliacea (L.) Vahl
How it was run: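 Compound A (SC, acid-equivalent basis) alone or with cyhalofop-R-butyl or metamifop plus a third herbicide, injected into paddy water of greenhouse-grown transplanted rice and weeds at 1st–4th leaf stage (~29/26 °C). Visual injury scored 0–100% after ~3 weeks vs untreated; expected mixture effects by Colby's equation.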

SCPMA = assay: as above; format: in vivo, Schoenoplectus maritimus (L.) Lye
Protocol: Applications were made by injecting with a pipetter appropriate amounts of the application solutions, into the aqueous layer of the paddy. Control plants were treated in the same manner with the solvent blank. Applications were made so that all treated plant material received the same concentrations of acetone and crop oil concentrate.
The treated plants and control plants were placed in a greenhouse as described above and water was added as needed to maintain a paddy flood. After approximately 3 weeks the condition of the test plants as compared with that of the untreated plants was determined visually and scored on a scale of 0 to 100 percent where 0 corresponds to no injury or growth inhibition and 100 corresponds to complete kill.
Colby's equation was used to determine the herbicidal effects expected from the mixtures (Colby, S. R. 1967. Calculation of the synergistic and antagonistic response of herbicide combinations. Weeds 15:20-22.).
The following equation was used to calculate the expected activity of mixtures containing three active ingredients, A. B, and C: Expected=A+B+C−((A×B+A×C+B×C)/100)+(A×B×C/10000)

ECHSS = assay: Example V post-emergence field trials in direct-seeded rice; format: in vivo, multiple Echinochloa species; conditions: foliar, field trial Italy
Protocol: Multiple field trials were conducted under commercial grower field conditions in Tolima, Colombia; Thessaloniki, Greece; Bianze and Copiano, Italy; and Humphrey, Ark., USA. Trials sites were located in commercially grown fields of direct-seeded rice (Oryza sativa) using standard herbicide small plot research methodology. Plots varied from 2 to 3 meter (m)×5 to 8 m (width×length) with 4 replicates per treatment. The rice crop was grown using normal cultural practices for fertilization, seeding, watering, flooding and maintenance to ensure good growth of the crop and the weeds.
All treatments in the field trials were applied using a backpack compressed air/gas sprayer with flat fan nozzles (80° or 110°) calibrated to apply 187 to 300 L/ha spray volume at approximately 200-400 kPa nozzle pressure. Commercially available products of cyhalofop-butyl (Clincher 180EC, Clincher 200EC, and Clincher SF (285 gr ai/L EC)) were mixed in water at appropriate formulated product rates to achieve the desired rates based on a unit area of application (hectare) to achieve the desired rates as shown. Treatments were rate at 19 to 58 days after application (DAA) as compared to the untreated control plants. Visual weed control was scored on a scale of 0 to 100 percent where 0 corresponds to no injury and 100 corresponds to complete kill. […]

SMILES: COc1c(Cl)ccc(-c2nc(C(=O)OCc3ccccc3)c(Cl)c(N)c2F)c1F [Compound A Benzyl Ester, benzyl ester of 4-amino-3-chloro-5-fluoro-6-(4-chloro-2-fluoro-3-methoxy-phenyl)pyridine-2-carboxylic acid]
- Visual Weed Control (%) - 21 DAA FIMMI Obs (FIMMI; 1.09 gae/ha): 8%
- Visual Weed Control (%) - 21 DAA FIMMI Obs (FIMMI; 1.09 gae/ha, first set): 8%
- Visual Weed Control (%) - 21 DAA FIMMI Obs (FIMMI; 2.19 gae/ha): 33%
- Visual Weed Control (%) - 21 DAA FIMMI Obs (FIMMI; 2.19 gae/ha, first set): 33%
- Visual Weed Control (%) - 24 DAA FIMMI Obs (FIMMI; 4 gae/ha): 0%
- Visual Weed Control (%) - 21 DAA FIMMI Obs (FIMMI; 4 gae/ha, second set): 62%
- Visual Weed Control (%) - 24 DAA FIMMI Obs (FIMMI; 8 gae/ha): 50%
- Visual Weed Control (%) - 24 DAA FIMMI Obs (FIMMI; 16 gae/ha): 30%
- Visual Weed Control (%) - 24 DAA FIMMI Obs (FIMMI; Table 67, 4 gae/ha, 24 DAA): 0%
- Visual Weed Control (%) - 24 DAA FIMMI Obs (FIMMI; Table 67, 8 gae/ha, 24 DAA): 50%
- Visual Weed Control (%) - 24 DAA FIMMI Obs (FIMMI; Table 67, 16 gae/ha, 24 DAA): 30%
- Visual Weed Control (%) - 24 DAA SCPMA Obs (SCPMA; 4 gae/ha): 0%
- Visual Weed Control (%) - 24 DAA SCPMA Obs (SCPMA; 8 gae/ha): 0%
- Visual Weed Control (%) - 24 DAA SCPMA Obs (SCPMA; 16 gae/ha): 0%
- Visual Weed Control (%) - 55-58 DAA ECHSS Obs (ECHSS; 24 gae/ha): 40%

SMILES: CCCCOC(=O)[C@@H](C)Oc1ccc(Oc2ccc(C#N)cc2F)cc1 [Cyhalofop-butyl, butyl(2R)-2-[4-(4-cyano-2-fluorophenoxy)phenoxy]propanoate, reference compound]
- Visual Weed Control (%) - 21 DAA FIMMI Obs (FIMMI; 22.5 gai/ha): 33%
- Visual Weed Control (%) - 21 DAA FIMMI Obs (FIMMI; 22.5 gai/ha, second set): 0%
- Visual Weed Control (%) - 21 DAA FIMMI Obs (FIMMI; 45 gai/ha): 0%
- Visual Weed Control (%) - 21 DAA FIMMI Obs (FIMMI; 45 gai/ha, first set): 0%
- Visual Weed Control (%) - 21 DAA FIMMI Obs (FIMMI; 45 gai/ha, second set): 0%
- Visual Weed Control (%) - 24 DAA FIMMI Obs (FIMMI; 90 gai/ha): 0%
- Visual Weed Control (%) - 24 DAA FIMMI Obs (FIMMI; 180 gai/ha): 20%
- Visual Weed Control (%) - 24 DAA FIMMI Obs (FIMMI; Table 67, 180 gai/ha, 24 DAA): 20%
- Visual Weed Control (%) - 24 DAA SCPMA Obs (SCPMA; 180 gai/ha): 0%
- Visual Weed Control (%) - 55-58 DAA ECHSS Obs (ECHSS; 300 gai/ha): 37%
